How the values were obtained:
Assay type in all cases: in vivo
weeds = assay: Pre-emergence test (greenhouse), activity against weeds; settings: in words
Description: Solvent: 5 parts by weight of acetone
Emulsifier: 1 part by weight of alkylaryl polyglycol ether
(§1) To produce a suitable preparation of the active compound, 1 part by weight of active compound is mixed with the stated amount of solvent, the stated amount of emulsifier is added and the concentrate is diluted with water to the desired concentration.
(§2) Seeds of the test plants are sown in normal soil. After about 24 hours, the soil is watered with the preparation of active compound. Advantageously, the amount of water per unit area is kept constant. The active compound concentration in the preparation is not important, only the active compound appliation rate per unit area matters.
(§3) After three weeks, the degree of damage to the plants is rated in % damage in comparison to the development of the untreated control.
(§4) 0%=no action (like untreated control)

Maize = assay: Pre-emergence test/Greenhouse, Maize; settings: in vivo
Description: as §1, §2, §3, §4

Lolium = assay: Pre-emergence test/Greenhouse, Lolium; settings: after three weeks
Description: as §1, §2, §3, §4

Poa = assay: Pre-emergence test/Greenhouse, Poa; settings: after three weeks
Description: as §1, §2, §3, §4

Ambrosia = assay: Pre-emergence test/Greenhouse, Ambrosia; settings: after three weeks
Description: as §1, §2, §3, §4

Matricaria = assay: Pre-emergence test/Greenhouse, Matricaria; settings: after three weeks
Description: as §1, §2, §3, §4

Solanum = assay: Pre-emergence test/Greenhouse, Solanum; settings: after three weeks
Description: as §1, §2, §3, §4

Sorghum = assay: Pre-emergence test/Greenhouse, Sorghum; settings: after three weeks
Description: as §1, §2, §3, §4

COC(=O)c1scc(C)c1S(=O)(=O)NC(=O)n1nc(OC(C)C)n(C2CC2)c1=O [Example 53]
activity against weeds (weeds): very strong activity against weeds
degree of damage to the plants (% damage vs untreated control), Maize (Maize): 0%
degree of damage to the plants (% damage vs untreated control), Lolium (Lolium; 125 g of ai./ha): 95%
degree of damage to the plants (% damage vs untreated control), Poa (Poa; 125 g of ai./ha): 95%
degree of damage to the plants (% damage vs untreated control), Ambrosia (Ambrosia; 125 g of ai./ha): 95%
degree of damage to the plants (% damage vs untreated control), Matricaria (Matricaria; 125 g of ai./ha): 95%
degree of damage to the plants (% damage vs untreated control), Solanum (Solanum; 125 g of ai./ha): 95%

CCCOc1nn(C(=O)NS(=O)(=O)c2c(C)csc2C(=O)OCC)c(=O)n1C [Example 58]
activity against weeds (weeds): very strong activity against weeds
degree of damage to the plants (% damage vs untreated control), Maize (Maize): 20%
degree of damage to the plants (% damage vs untreated control), Lolium (Lolium; 125 g of ai./ha): 80%
degree of damage to the plants (% damage vs untreated control), Poa (Poa; 125 g of ai./ha): 95%
degree of damage to the plants (% damage vs untreated control), Matricaria (Matricaria; 125 g of ai./ha): 100%
degree of damage to the plants (% damage vs untreated control), Solanum (Solanum; 125 g of ai./ha): 95%

CCOC(=O)c1scc(C)c1S(=O)(=O)NC(=O)n1nc(OC(C)C)n(C)c1=O [Example 59]
activity against weeds (weeds): very strong activity against weeds
degree of damage to the plants (% damage vs untreated control), Maize (Maize): 0%
degree of damage to the plants (% damage vs untreated control), Lolium (Lolium; 125 g of ai./ha): 100%
degree of damage to the plants (% damage vs untreated control), Poa (Poa; 125 g of ai./ha): 70%
degree of damage to the plants (% damage vs untreated control), Ambrosia (Ambrosia; 125 g of ai./ha): 95%
degree of damage to the plants (% damage vs untreated control), Matricaria (Matricaria; 125 g of ai./ha): 100%
degree of damage to the plants (% damage vs untreated control), Solanum (Solanum; 125 g of ai./ha): 95%

CCOC(=O)c1scc(C)c1S(=O)(=O)NC(=O)n1nc(CC)n(C)c1=O [Example 66]
activity against weeds (weeds): very strong activity against weeds
degree of damage to the plants (% damage vs untreated control), Maize (Maize): 0%
degree of damage to the plants (% damage vs untreated control), Lolium (Lolium; 125 g of ai./ha): 100%
degree of damage to the plants (% damage vs untreated control), Sorghum (Sorghum; 125 g of ai./ha): 100%
degree of damage to the plants (% damage vs untreated control), Matricaria (Matricaria; 125 g of ai./ha): 100%
degree of damage to the plants (% damage vs untreated control), Solanum (Solanum; 125 g of ai./ha): 100%

CCCc1nn(C(=O)NS(=O)(=O)c2c(C)csc2C(=O)OCC)c(=O)n1C [Example 67]
activity against weeds (weeds): very strong activity against weeds
degree of damage to the plants (% damage vs untreated control), Maize (Maize): 0%
degree of damage to the plants (% damage vs untreated control), Lolium (Lolium; 60 g of ai./ha): 100%
degree of damage to the plants (% damage vs untreated control), Sorghum (Sorghum; 60 g of ai./ha): 90%
degree of damage to the plants (% damage vs untreated control), Matricaria (Matricaria; 60 g of ai./ha): 100%
degree of damage to the plants (% damage vs untreated control), Solanum (Solanum; 60 g of ai./ha): 100%

CCOC(=O)c1scc(C)c1S(=O)(=O)NC(=O)n1nc(OC(C)C)n(C2CC2)c1=O [Example 70]
activity against weeds (weeds): very strong activity against weeds
degree of damage to the plants (% damage vs untreated control), Maize (Maize): 10%
degree of damage to the plants (% damage vs untreated control), Lolium (Lolium; 60 g of ai./ha): 90%
degree of damage to the plants (% damage vs untreated control), Poa (Poa; 60 g of ai./ha): 90%
degree of damage to the plants (% damage vs untreated control), Ambrosia (Ambrosia; 60 g of ai./ha): 90%
degree of damage to the plants (% damage vs untreated control), Matricaria (Matricaria; 60 g of ai./ha): 100%
degree of damage to the plants (% damage vs untreated control), Solanum (Solanum; 60 g of ai./ha): 100%

CCOC(=O)c1scc(C)c1S(=O)(=O)NC(=O)c1noc(C)n1 [Example 72]
activity against weeds (weeds): very strong activity against weeds
degree of damage to the plants (% damage vs untreated control), Maize (Maize): 10%
degree of damage to the plants (% damage vs untreated control), Lolium (Lolium; 125 g of ai./ha): 90%
degree of damage to the plants (% damage vs untreated control), Poa (Poa; 125 g of ai./ha): 70%
degree of damage to the plants (% damage vs untreated control), Ambrosia (Ambrosia; 125 g of ai./ha): 95%
degree of damage to the plants (% damage vs untreated control), Matricaria (Matricaria; 125 g of ai./ha): 100%
degree of damage to the plants (% damage vs untreated control), Solanum (Solanum; 125 g of ai./ha): 100%

CCc1nn(C(=O)NS(=O)(=O)c2c(C)csc2C(=O)OC(C)C)c(=O)n1C [Example 77]
activity against weeds (weeds): very strong activity against weeds
degree of damage to the plants (% damage vs untreated control), Maize (Maize): 0%
degree of damage to the plants (% damage vs untreated control), Lolium (Lolium; 60 g of ai./ha): 95%
degree of damage to the plants (% damage vs untreated control), Sorghum (Sorghum; 60 g of ai./ha): 90%
degree of damage to the plants (% damage vs untreated control), Matricaria (Matricaria; 60 g of ai./ha): 100%
degree of damage to the plants (% damage vs untreated control), Solanum (Solanum; 60 g of ai./ha): 90%

CCCOC(=O)c1scc(C)c1S(=O)(=O)NC(=O)n1nc(OCC)n(C)c1=O [Example 80]
activity against weeds (weeds): very strong activity against weeds
degree of damage to the plants (% damage vs untreated control), Maize (Maize): 0%
degree of damage to the plants (% damage vs untreated control), Lolium (Lolium; 125 g of ai./ha): 95%
degree of damage to the plants (% damage vs untreated control), Sorghum (Sorghum; 125 g of ai./ha): 90%
degree of damage to the plants (% damage vs untreated control), Matricaria (Matricaria; 125 g of ai./ha): 100%
degree of damage to the plants (% damage vs untreated control), Solanum (Solanum; 125 g of ai./ha): 95%

CCSc1nn(C(=O)NS(=O)(=O)c2c(C)csc2C(=O)OC(C)C)c(=O)n1C [Example 81]
activity against weeds (weeds): very strong activity against weeds
degree of damage to the plants (% damage vs untreated control), Lolium (Lolium; 60 g of ai./ha): 100%
degree of damage to the plants (% damage vs untreated control), Sorghum (Sorghum; 60 g of ai./ha): 95%
degree of damage to the plants (% damage vs untreated control), Matricaria (Matricaria; 60 g of ai./ha): 100%
degree of damage to the plants (% damage vs untreated control), Solanum (Solanum; 60 g of ai./ha): 100%

COc1nn(C(=O)NS(=O)(=O)c2c(C)csc2C(=O)OC(C)C)c(=O)n1C [Example 82]
activity against weeds (weeds): very strong activity against weeds
degree of damage to the plants (% damage vs untreated control), Maize (Maize): 0%
degree of damage to the plants (% damage vs untreated control), Lolium (Lolium; 60 g of ai./ha): 60%
degree of damage to the plants (% damage vs untreated control), Sorghum (Sorghum; 60 g of ai./ha): 90%
degree of damage to the plants (% damage vs untreated control), Matricaria (Matricaria; 60 g of ai./ha): 100%
degree of damage to the plants (% damage vs untreated control), Solanum (Solanum; 60 g of ai./ha): 100%

CCOc1nn(C(=O)NS(=O)(=O)c2c(C)csc2C(=O)OC(C)C)c(=O)n1C1CC1 [Example 85]
activity against weeds (weeds): very strong activity against weeds
degree of damage to the plants (% damage vs untreated control), Maize (Maize): 60%
degree of damage to the plants (% damage vs untreated control), Lolium (Lolium; 125 g of ai./ha): 95%
degree of damage to the plants (% damage vs untreated control), Sorghum (Sorghum; 125 g of ai./ha): 95%
degree of damage to the plants (% damage vs untreated control), Matricaria (Matricaria; 125 g of ai./ha): 100%
degree of damage to the plants (% damage vs untreated control), Solanum (Solanum; 125 g of ai./ha): 100%

CCCOC(=O)c1scc(C)c1S(=O)(=O)NC(=O)n1nc(OC)n(C)c1=O [Example 89]
activity against weeds (weeds): very strong activity against weeds
degree of damage to the plants (% damage vs untreated control), Maize (Maize): 0%
degree of damage to the plants (% damage vs untreated control), Lolium (Lolium; 125 g of ai./ha): 100%
degree of damage to the plants (% damage vs untreated control), Sorghum (Sorghum; 125 g of ai./ha): 90%
degree of damage to the plants (% damage vs untreated control), Matricaria (Matricaria; 125 g of ai./ha): 100%
degree of damage to the plants (% damage vs untreated control), Solanum (Solanum; 125 g of ai./ha): 100%

CCCOC(=O)c1scc(C)c1S(=O)(=O)NC(=O)n1nc(OCC)n(C2CC2)c1=O [Example 93]
activity against weeds (weeds): very strong activity against weeds
degree of damage to the plants (% damage vs untreated control), Maize (Maize): 0%
degree of damage to the plants (% damage vs untreated control), Lolium (Lolium; 60 g of ai./ha): 90%
degree of damage to the plants (% damage vs untreated control), Sorghum (Sorghum; 60 g of ai./ha): 80%
degree of damage to the plants (% damage vs untreated control), Matricaria (Matricaria; 60 g of ai./ha): 95%
degree of damage to the plants (% damage vs untreated control), Solanum (Solanum; 60 g of ai./ha): 90%

CCCc1nn(C(=O)NS(=O)(=O)c2c(C)csc2C(=O)OC(C)C)c(=O)n1C [Example 108]
activity against weeds (weeds): very strong activity against weeds
degree of damage to the plants (% damage vs untreated control), Maize (Maize): 5%
degree of damage to the plants (% damage vs untreated control), Lolium (Lolium; 125 g of ai./ha): 90%
degree of damage to the plants (% damage vs untreated control), Sorghum (Sorghum; 125 g of ai./ha): 95%
degree of damage to the plants (% damage vs untreated control), Matricaria (Matricaria; 125 g of ai./ha): 95%
degree of damage to the plants (% damage vs untreated control), Solanum (Solanum; 125 g of ai./ha): 90%

COC(=O)c1cccc(C)c1S(=O)(=O)NC(=O)c1ncc(C)o1 [Example 121]
activity against weeds (weeds): very strong activity against weeds
degree of damage to the plants (% damage vs untreated control), Maize (Maize): 10%
degree of damage to the plants (% damage vs untreated control), Lolium (Lolium; 500 g of ai./ha): 70%
degree of damage to the plants (% damage vs untreated control), Sorghum (Sorghum; 500 g of ai./ha): 80%
degree of damage to the plants (% damage vs untreated control), Matricaria (Matricaria; 500 g of ai./ha): 90%
degree of damage to the plants (% damage vs untreated control), Solanum (Solanum; 500 g of ai./ha): 95%

COC(=O)c1cccc(C)c1S(=O)(=O)NC(=O)n1nc(SC)n(C2CC2)c1=O [Example 158]
activity against weeds (weeds): very strong activity against weeds

From patent US6441195B1, “Substituted sulphonylamino(thio) carbonyl compounds” (Bayer Aktiengesellschaft, priority 1995, dated 2002)
